The subject of experiment [1] is LXYL-P1 (or P1) protein. Put plainly: Specificity test on different glycoside (chromogenic) substrates hydrolysis by purified LXYL-P1. The following applies: 20 min; for Relative activity (% control): control = PNP-Xyl; for Relative activity (% control) / OD405 value: 5 mM substrate, pH 5.0, 50° C., purified P1; for OD405 value: release of p-nitrophenol at 405 nm; for hydrolysis of chromogenic substrate by P1 protein (in words): 50° C., pH 5.0. The format is biochemical, Lentinula edodes M95.33. The procedure: In addition to the β-xylosidase activity, especially the activity of hydrolyzing 7-xylosyltaxanes, the specificity of the LXYL-P1 (or P1) on other glycoside substrates was also tested by employing four chromogenic substrates: p-nitrophenyl-β-D-glucopyranoside (PNP-Glc), p-nitrophenyl-β-D-galactopyranoside (PNP-Gal), p-nitrophenyl-α-L-arabinopyrano side (PNP-Ara), and p-Nitrophenyl-β-D-xylopyranoside (PNP-Xyl, serving as a control). Each of the chromogenic substrates was prepared in 50 mM acetate buffer to obtain 5 mM solution (pH 5.0).
To the purified P1 protein diluent (25 μl) obtained in example 1, 100 μl of each chromogenic substrate was added. The reaction was performed at 50° C. for 20 min and stopped with 2 ml saturated solution of sodium borate. Release of p-nitrophenol (absorbance value) was measured at 405 nm.

For experiment [2], the system named is recombinant strain GS115-9K-P1-2. Put plainly: β-xylosidase activity of the recombinant yeast strain on PNP-Xyl. The format is cell-based, Pichia pastoris. The procedure:
FIG. 4: Comparison of the recombinant strains GS115-9K-P1-2 and GS115-9K (control) on β-xylosidase activity.
BMGY medium (contains per liter: 10.00 g yeast extract, 20.00 g peptone, 100 mM potassium phosphate buffer, pH 6.0, 10 ml glycerol) and BMMY medium (10 ml glycerol in BMGY medium was replaced with 10 ml methanol as the carbon source) were used as the seed culture and fermentation media respectively for the recombinant yeast. The resistant strain obtained by screening was inoculated into 10 ml seed culture medium and incubated at 30° C., 220 rpm for 18 h. The cultures were washed 2 times by centrifugation and the cell pellet was transferred into 50 ml fermentation medium. Cells were cultured at 30° C., 220 rpm, and 1% methanol was added every 24 h for induction of expression of the recombinant protein. Meanwhile the enzyme activity of the recombinant strain was detected regularly. […]

Experiment [3] relates to recombinant yeast GS115-3.5K-P1-2. Put plainly: Hydrolysis of XDB by the recombinant yeast. The format is cell-based, Pichia pastoris. Conditions: 8 mg XDB/ml, 16 mg dry cells/ml, 24 h, 30-55° C., HPLC. The procedure: The strain was the same as that in Example 6 and the substrate was 7-xylosyl-10-deacetylbaccatin III (XDB). 1.5 ml cell reaction solution contained 16 mg dry cells per milliliter and 8 mg XDB per milliliter. The mixture was incubated in a water shaking bath for 24 h at 30˜55° C.

Experiment [4] has the same test system. Put plainly: Hydrolysis of 7-xylosyltaxane mixtures by the recombinant yeast. Conditions: 7-xylosyltaxane mixtures about 8 mg/ml, 24 h, 30-55° C., HPLC. The format is cell-based, Pichia pastoris. The text has this: The recombinant yeast GS115-3.5K-P1-2 (transformant of the recombinant expression plasmid pPIC3.5K-P1-2) obtained in Example 4 was applied in the following bioconversion reaction, wherein the substrates to be converted were 7-xylosyltaxane mixtures, the main components of which included 62.12% of 7-xylosyl-10-deacetyltaxol, 12.75% of 7-xylosyl-10-deacetylcephalomannine, 17.04% of 7-xylosyl-10-deacetyltaxol C, and 8.09% of other components.
The method for culturing the recombinant strain was the same as in Example 5. 16 ml 7-xylosyltaxane mixtures (at a concentration of 100 mg/ml) were added to 200 ml recombinant strain reaction solution with the final concentration of the 7-xylosyltaxane mixtures being about 8 mg/ml (supersaturated). The recombinant yeast introduced with the null vector was taken as the negative control. The solution was mixed by magnetic stirring for 24 h at 30˜55° C. […] The yields of the three main products: 10-deacetyltaxol (DT): 3.27 mg/ml; 10-deacetylcephalomannine (DC): 0.74 mg/ml; and 10-deacetyltaxol C (DTC): 0.92 mg/ml.

Experiment [5] concerns LXYL-P2 (or P2). Put plainly: XDT conversion by Phenyl Sepharose peak LXYL-P2, thin layer chromatography. The following applies: TLC, FIG. 1B. The format is biochemical, Lentinula edodes M95.33. An excerpt:
(§1) FIG. 1: Phenyl Sepharose hydrophobic column chromatography of the β-xylosidase-β-glucosidase from the protein extract of the fungus M95.33 (A), and thin layer chromatography (TLC) of XDT conversion (B). • A: P1. active elution peak of LXYL-P1; P2. active elution peak of LXYL-P2. […] XDT (control); 2. DT (control); 3. XDT bioconversion by LXYL-P1; 4. XDT bioconversion by LXYL-P2.
(§2) The fraction eluted in the above step was applied to a Phenyl Sepharose hydrophobic column (1.6 cm×20 cm) equilibrated with 50 mM Tris-HCl buffer (pH 8.0) containing 1 M […]. Elution was performed with Tris-HCl buffer (50 mM, pH8.0) having a linear gradient of 1.0˜0 M (NH4)2SO4 (at a flow rate of 2 ml/min). Fractions having enzymatic activity were collected and dialyzed with Tris-HCl buffer (50 mM, pH8.0).
(§3) Within penal B, 1 was XDT control; 2 was DT control; 3 was XDT conversion by P1; and 4 was XDT conversion by P2.

In experiment [6] the test system is recombinant yeast GS115-9K-P1-2. As to the kind of experiment: Hydrolysis of 7-xylosyl-10-deacetyltaxol (XDT) by the recombinant yeast. Conditions: XDT 0.625 mg/ml, 12 h, 30-55° C. The format is cell-based, Pichia pastoris. As for the experimental part:
The recombinant yeast GS115-9K-P1-2 (transformant of the recombinant expression plasmid pPIC-9K-P1-2) obtained in example 4 was cultured and induced for 5 days in the manner of Example 4. Cells were centrifuged, harvested and washed, and then was, directly or after lyophilization, suspended with 50 mM acetate buffer or phosphate buffer (65 mg wet cells/ml or 16 mg dry cells/ml, pH 3.5˜7.5), and used as the hydrolytic reaction solution. To 20 ml of the cell reaction solution, 0.5 ml solution of 7-xylosyl-10-deacetyltaxol (XDT) was added with the final concentration of XDT being 0.625 mg/ml. The resultant was incubated in a water shaking bath for 12 h at 30˜55° C.
Extraction was performed with ethyl acetate after the reaction was completed.

Experiment [7] deals with Leifsonia shinshuensis DICP 16. The following applies: 1 mg XDT in 2 ml cell suspension, 21 h, 30° C.; cited from earlier work.
Experiment [8] deals with Moraxella sp. (ATCC55475). Conditions: XDT 0.25 mg/ml, wet cells 91.5 mg/ml, 21 h, 28° C.; cited from earlier work.
The test system of experiment [9] is LXYL-P1 (or P1). Put plainly: XDT conversion by Phenyl Sepharose peak LXYL-P1, thin layer chromatography. The following applies: TLC, FIG. 1B. The format is biochemical, Lentinula edodes M95.33.
Description: as §1, §2, §3

For `O=[N+]([O-])c1ccc(O[C@@H]2OC[C@H](O)[C@H](O)[C@H]2O)cc1` [PNP-Ara, p-nitrophenyl-α-L-arabinopyranoside], in experiment [1], the “Relative activity (% control)” value came out at 0 % control and the OD405 value is recorded as 0.000.

`O=[N+]([O-])c1ccc(O[C@@H]2O[C@H](CO)[C@H](O)[C@H](O)[C@H]2O)cc1` [PNP-Gal, p-nitrophenyl-β-D-galactopyranoside]: in experiment [1], the “Relative activity (% control)” value is reported as 0 % control and the OD405 value was found to be 0.000.

Take `O=[N+]([O-])c1ccc(O[C@@H]2O[C@H](CO)[C@@H](O)[C@H](O)[C@H]2O)cc1` [PNP-Glc, p-nitrophenyl-β-D-glucopyranoside]: in experiment [1], the “hydrolysis of chromogenic substrate by P1 protein (in words)” value is “could hydrolyze”, the “Relative activity (% control)” value worked out at 217 % control and the OD405 value was 1.615.

On to `O=[N+]([O-])c1ccc(O[C@@H]2OC[C@@H](O)[C@H](O)[C@H]2O)cc1` [PNP-Xyl, p-nitrophenyl-β-D-xylopyranoside], for which, in [1], the “hydrolysis of chromogenic substrate by P1 protein (in words)” value was “could hydrolyze”, the “Relative activity (% control)” value is on record as 100 % control and the OD405 value came out at 0.745. For the same molecule, the “ability of recombinant strain to hydrolyze the substrate” value in [2] (cell suspension, 5 mM PNP-Xyl, 20 min, 30-55° C.) is “has the ability to hydrolyze”. For the same molecule, the “enzymatic activity in supernatant of fermentation broth of recombinant strain” value in experiment [2] (supernatant of the fermentation broth) was “no obvious enzymatic activity was detected”.

With `CC(=O)O[C@@]12CO[C@@H]1C[C@H](O[C@@H]1OC[C@@H](O)[C@H](O)[C@H]1O)[C@@]1(C)C(=O)[C@H](O)C3=C(C)[C@@H](O)C[C@@](O)([C@@H](OC(=O)c4ccccc4)[C@H]21)C3(C)C` [XDB, 7-Xylosyl-10-deacetylbaccatin III], in experiment [3], the conversion ratio is listed as 86.54%.

With `CC=C(C)C(=O)NC(c1ccccc1)C(O)C(=O)OC1CC2(O)C(OC(=O)c3ccccc3)C3C4(OC(C)=O)COC4CC(OC4OCC(O)C(O)C4O)C3(C)C(=O)C(O)C(=C1C)C2(C)C` (stereo not shown) [XDC, 7-Xylosyl-10-deacetylcephalomannine], the conversion ratio in experiment [4] worked out at 93.60%.

Take `CC(=O)O[C@@]12CO[C@@H]1C[C@H](O[C@@H]1OC[C@@H](O)[C@H](O)[C@H]1O)[C@@]1(C)C(=O)[C@H](O)C3=C(C)[C@@H](OC(=O)[C@H](O)[C@@H](NC(=O)c4ccccc4)c4ccccc4)C[C@@](O)([C@@H](OC(=O)c4ccccc4)[C@H]21)C3(C)C` [XDT, 7-Xylosyl-10-deacetyltaxol]: in [5], the “hydrolysis of XDT into DT by P2” value is recorded as “could hydrolyze”. Further, the results for the conversion ratio in [6] (HPLC) and in experiment [4] were 98.80% and 92.45%, respectively. In [6] (TLC), the “substrate transformation by TLC” value is on record as “completely transformed”. For the same molecule, the “XDT remaining after reaction (HPLC)” value in experiment [7] and in experiment [8] was “No XDT was found to be remaining” throughout. In experiment [9], the “hydrolysis of XDT into DT by P1” value is given as “could hydrolyze”.

`CCCCCC(=O)N[C@@H](c1ccccc1)[C@@H](O)C(=O)O[C@H]1C[C@@]2(O)[C@@H](OC(=O)c3ccccc3)[C@@H]3[C@]4(OC(C)=O)CO[C@@H]4C[C@H](O[C@@H]4OC[C@@H](O)[C@H](O)[C@H]4O)[C@@]3(C)C(=O)[C@H](O)C(=C1C)C2(C)C` [XDTC, 7-Xylosyl-10-deacetyltaxol C]: in experiment [4], the conversion ratio came out at 92.00%.

(Values after patent US9206405B2, “Glycosyl hydrolase with beta-xylosidase and beta-glucosidase activities and uses thereof” (Institute of Materia Medica, Chinese Academy of Medical …, priority 2010, dated 2015).)
